The record followed here is patent US20240384268A1, “Oligonucleotides” (Hudson Institute of Medical Research, priority 2021, published 2024).

For this data set, the target named is T1, human TLR9 (Homo sapiens, UniProt Q9NR96).
T1 construct: HA; host or cells: 293XL-hTLR9-HA (HEK293)
T1 sequence (Q9NR96 26-1032): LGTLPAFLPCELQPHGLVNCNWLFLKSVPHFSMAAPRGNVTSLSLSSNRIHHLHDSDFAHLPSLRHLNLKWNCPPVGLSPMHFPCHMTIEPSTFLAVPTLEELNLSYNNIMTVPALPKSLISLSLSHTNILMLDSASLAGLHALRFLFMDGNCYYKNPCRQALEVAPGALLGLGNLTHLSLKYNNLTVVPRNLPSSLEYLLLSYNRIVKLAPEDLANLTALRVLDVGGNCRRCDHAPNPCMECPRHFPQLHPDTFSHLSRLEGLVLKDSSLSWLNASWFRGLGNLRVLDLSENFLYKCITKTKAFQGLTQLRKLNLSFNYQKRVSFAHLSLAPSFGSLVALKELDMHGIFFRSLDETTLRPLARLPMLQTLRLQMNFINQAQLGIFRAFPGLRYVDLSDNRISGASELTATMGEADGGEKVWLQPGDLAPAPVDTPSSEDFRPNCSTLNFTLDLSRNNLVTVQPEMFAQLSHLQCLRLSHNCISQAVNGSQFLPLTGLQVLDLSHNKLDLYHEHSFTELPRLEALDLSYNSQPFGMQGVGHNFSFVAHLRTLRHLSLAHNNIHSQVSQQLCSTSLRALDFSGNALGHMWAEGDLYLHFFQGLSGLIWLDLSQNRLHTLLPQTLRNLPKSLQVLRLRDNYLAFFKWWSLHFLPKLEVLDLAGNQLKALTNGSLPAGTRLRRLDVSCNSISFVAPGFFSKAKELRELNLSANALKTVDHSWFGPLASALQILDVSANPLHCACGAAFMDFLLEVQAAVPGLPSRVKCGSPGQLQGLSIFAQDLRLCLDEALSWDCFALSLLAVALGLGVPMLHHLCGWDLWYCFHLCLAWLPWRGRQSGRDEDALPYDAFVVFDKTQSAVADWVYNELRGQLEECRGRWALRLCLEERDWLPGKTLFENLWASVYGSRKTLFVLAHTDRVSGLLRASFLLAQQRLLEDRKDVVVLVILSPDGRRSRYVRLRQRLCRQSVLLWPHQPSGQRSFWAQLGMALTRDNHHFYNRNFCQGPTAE
Briefly: HEK-TLR9 NF-κB-luciferase reporter, ODN2006 stimulation. It is filed as cell-based. The following applies: HEK-TLR9; for inhibition of TLR9 sensing of ODN2006 (in words): 500 nM 2′OMe or PS oligos, 200 nM ODN2006; for TLR9-500 nM: averaged NF-κB-Luciferase relative to ODN2006: 500 nM ASO 45 min, then 200 nM ODN2006 overnight, percentage of ODN2006 only.

In the oligonucleotide strings, read from the 5' end, every base follows the letter of its sugar. An asterisk marks phosphorothioate; unmarked linkages are phosphodiester. Other units and linkages are bracketed, terminal groups are in braces. A string of capitals states the bases alone. d = 2'-deoxy (DNA); m = 2'-O-methyl

Turning to “mC*mU*mU*mG*mU*G*A*A*A*A*G*A*T*T*A*mU*mC*mU*mU*mC (mC*mU*mU*mG*mU*dG*dA*dA*dA*dA*dG*dA*dT*dT*dA*mU*mC*mU*mU*mC) [[CDKN2B-AS1]2139]”, the “inhibition of TLR9 sensing of ODN2006 (in words)” value (from here on “inhibition”) is listed as “strongly inhibited TLR9” and the “TLR9-500 nM: averaged NF-κB-Luciferase relative to ODN2006” value worked out at 34.91%. In addition, the “inhibition” value (listed as ASO2139) is listed as “significantly increased TLR9 inhibition”.
As to “mG*mC*mA*mG*mU*C*T*C*C*A*T*G*T*C*C*mC*mA*mG*mG*mC (GCAGUCTCCATGTCCCAGGC; antisense; sugars from the 5' end m5 d10 m5, all phosphorothioate, methylation of C not given here) [[CDKN2B-AS1]2234]”, the “inhibition” value was “did not inhibit TLR9” and the “TLR9-500 nM: averaged NF-κB-Luciferase relative to ODN2006” value is recorded as 90.04%.
Turning to “mG*mU*mC*mU*mC*C*A*T*G*T*C*C*C*A*G*mG*mC*mC*mU*mC (mG*mU*mC*mU*mC*dC*dA*dT*dG*dT*dC*dC*dC*dA*dG*mG*mC*mC*mU*mC) [[CDKN2B;AS1]2231]”, the “TLR9-500 nM: averaged NF-κB-Luciferase relative to ODN2006” value amounted to 77.80%.
For “mG*mU*mG*mU*mC*C*T*T*C*A*T*G*C*T*T*mU*mG*mG*mA*mU (GUGUCCTTCATGCTTUGGAU; antisense; sugars from the 5' end m5 d10 m5, all phosphorothioate, methylation of C not given here) [[CDKN2B-AS1]1415]”, the “TLR9-500 nM: averaged NF-κB-Luciferase relative to ODN2006” value was 98.99%.
Regarding “mG*mU*mG*mU*mU*T*T*T*A*A*T*T*T*T*G*mU*mA*mG*mA*mG (mG*mU*mG*mU*mU*dT*dT*dT*dA*dA*dT*dT*dT*dT*dG*mU*mA*mG*mA*mG) [[CDKN2B-AS1]611]”, the “TLR9-500 nM: averaged NF-κB-Luciferase relative to ODN2006” value turned out to be 98.50%.
Regarding “mU*mA*mU*mU*mU*C*C*A*C*A*T*G*C*C*C*mA*mG*mU*mG*mU (mU*mA*mU*mU*mU*dC*dC*dA*dC*dA*dT*dG*dC*dC*dC*mA*mG*mU*mG*mU; antisense) [[CDKN2B-AS1]627]”, the “TLR9-500 nM: averaged NF-κB-Luciferase relative to ODN2006” value stood at 71.20%.
